# Experimental data as given in patent publication US5449814A, “Lignan analogues, methods of preparation thereof and anti-hyperlipemic agents” (Shionogi & Co., Ltd., priority 1991, dated 1995).
# Read-outs that look alike come from different tables or passages of the source.
# Legend:
# [1] = tested on: LDL; assay: Inhibitory effect on oxidative modification of LDL (copper-induced, TBA reactive substances); format: biochemical, New Zealand albino rabbits; settings: rabbit LDL 0.2 mg protein/ml, 0.5 μM Cu^2+, 37° C., 24 hours; read-out: Inhibition of LDL oxidation IC50
# Experimental: Inhibitory effect on oxidative modification of LDL
# According to the method by Kita et al. (Proc. Natl. Acad. Sci., U.S.A, Vol. 84, 5928 (1987)), the experiment was proceeded as follows.
# LDL was isolated from the blood of New Zealand albino rabbits fed with a diet containing 0.5% cholesterol for 3 weeks, and dissolved in phosphate-buffered physiological saline (final LDL concentration: 0.2 mg protein/ml). To this solution, each test compound in ethanol was added and then copper sulfate (final Cu^2+ concentration: 0.5 μM) was added thereto. The mixture was incubated at 37° C. for 24 hours.
# After incubation, the content of lipid peroxides in each solution was determined as thiobarbituric acid reactive substances (TBA reactive substances). Concentration for 50% inhibition (IC50) was obtained from a linear regression curve of concentration of a compound versus % inhibition of oxidative modification of LDL. To quantify TBA reactive substances, proteins were removed from the solution after incubation, and the supernatant was examined for the content of TBA reactive substances by TBA method.
# [2] = tested on: cholesterol in serum; assay: Hypocholesterolemic effect in cholesterol-fed mice; format: in vivo, Male ICR mice; settings: Mus musculus, po, 168 h, diet 1% cholesterol and 0.5% sodium cholate with 0.12% test compound, 7 days
# Experimental: Hypocholesterolemic effect
# Male ICR mice weighing 30 to 40 g were allowed to access to a diet containing 1% cholesterol and 0.5% sodium cholate supplemented with 0.12% of a test compound (no test compound in control group) ad libitum for 7 days. Then, the blood was taken and total cholesterol in serum was determined by the method of Allain (Clin. Chem., Vol. 20, 470 (1974)).
# Total amount of VLDL cholesterol and LDL cholesterol was obtained by subtracting HLD cholesterol from total cholesterol. HLD cholesterol was quantified by the method of Ash and Hentschel et al. (Clin. Chem., Vol. 24, 2180 (1978)).
# Hypocholesterolemic effect of a test compound was evaluated based on % reduction in cholesterol calculated using the equation shown below.
smiles,measurement,setting,value
"COC(=O)c1c(C(=O)c2ccccc2)c(O)c2c(C)c(OC)c(OC)c(OC)c2c1-c1ccc(OC)c(OC)c1 [Example 78, 3-benzoyl-1-(3,4-dimethoxyphenyl)-4-hydroxy-2-methoxycarbonyl-5-methyl-6,7,8-trimethoxynaphthalene]",IC50,[1],620 nM
same,inhibition in vivo at 0.12 % in diet,"[2]; serum, read-out: Total Chol. reduction (%)",14%
same,inhibition in vivo at 0.12 % in diet,"[2]; total minus HDL cholesterol, read-out: (VLDL + LDL) Chol. reduction (%)",42%
